Key:
CdnP (Rv2837c) = target: T1, CdnP (Rv2837c) (Mycobacterium tuberculosis, UniProt P71615); assay: High-throughput enzymatic activity assay (coralyne/c-di-AMP fluorescence); assay type: biochemical; conditions: for IC50: 100 nM CdnP, 15 µM c-di-AMP, 37°C, read-out: IC50 (half maximal inhibitory concentration); for inhibitory activity against CdnP: at concentrations as high as 1 mM (data not shown)
T1 construct: pET32a vector-encoded fusion (Trx / His6 / S-tag; composition from own knowledge of the vector, His tag consistent with Ni-NTA purification) (N); made in house; host or cells: Escherichia coli BL21(DE3)
T1 sequence (P71615 whole entry, the tested form may be a part): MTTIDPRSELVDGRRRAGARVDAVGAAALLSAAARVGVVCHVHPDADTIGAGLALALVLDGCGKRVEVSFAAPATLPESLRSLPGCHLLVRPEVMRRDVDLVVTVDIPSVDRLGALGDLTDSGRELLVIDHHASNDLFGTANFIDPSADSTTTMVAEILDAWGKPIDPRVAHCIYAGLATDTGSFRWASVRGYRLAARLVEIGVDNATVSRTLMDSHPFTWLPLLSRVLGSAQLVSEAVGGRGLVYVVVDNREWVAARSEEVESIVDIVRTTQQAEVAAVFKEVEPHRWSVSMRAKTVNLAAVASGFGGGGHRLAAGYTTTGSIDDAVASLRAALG

CdnP [1] = target: T2, CdnP (Mycobacterium tuberculosis, UniProt P71615); assay: Surface plasmon resonance (SPR) binding assay; conditions: for kon: read-out: 1:1 binding ka
T2 sequence (P71615 whole entry, looked up): as the sequence (P71615 whole entry, the tested form may be a part) above
Experimental: Binding affinity between CdnP and test compounds was determined using a Biacore 1K instrument (Cytiva). Recombinant CdnP was immobilized on a Series S CM5 sensor chip according to manufacturer’s protocols. Association and dissociation kinetics were measured using a pre-established multi-cycle kinetics/affinity protocol with eight serially diluted compound concentrations in running buffer (10 mM HEPES, pH 7.4, 150 mM NaCl, 3 mM EDTA, 0.005% [vol/vol] Surfactant P20, and 5% [vol/vol] DMSO). Binding data were analyzed using the multi-cycle kinetics model to determine association rate (Ka), dissociation rate (Kd), and equilibrium dissociation constant (KD) values.

CdnP [2] = target: T2, CdnP; conditions: cited from earlier work
[3] = 1:1 binding, multi-cycle kinetics

| SMILES | IC50 (CdnP (Rv2837c)) [µM] | inhibitory activity against CdnP (CdnP (Rv2837c)) | Quality kinetics Chi^2 (CdnP [1]) [RU^2] | Rmax (CdnP [1]) [RU] | kd (CdnP [1]) [s⁻¹] | tc (CdnP [1]) | Kd (CdnP [1]; [3]) [µM] | kon (CdnP [1]) [M⁻¹ s⁻¹] | inhibition of CdnP (CdnP [2]) | IC50 (CdnP [2]) [µM] | Kd (CdnP [1]) [µM] |
| --- | --- | --- | --- | --- | --- | --- | --- | --- | --- | --- | --- |
| COc1ccc([C@]2(C#N)CC[C@@H](C(=O)O)CC2)cc1OC1CCCC1 [Cilomilast, reference compound] | > 1000 | no detectable inhibitory activity | 3.17e-01 | 1733.5 | 0.465 | 6.30e+06 | 44200 | 10.5 | mild inhibition | – | – |
| O=C1CCc2cc(OCCCCc3nnnn3C3CCCCC3)ccc2N1 [Cilostazol, reference compound] | > 1000 | no detectable inhibitory activity | 7.64e-02 | – | 0.321 | 5.48e+09 | 4.18 | 76700 | mild inhibition | – | – |
| C[C@@H]1O[C@@H](OC[C@H]2O[C@@H](Oc3cc(O)c4c(=O)cc(-c5ccc(O)cc5)oc4c3)[C@H](O[C@@H]3O[C@@H](C)[C@H](O)[C@@H](O)[C@H]3O)[C@@H](O)[C@@H]2O)[C@H](O)[C@H](O)[C@H]1O [Ligustroflavone] | 39.5 ± 1.74 | – | 4.90e-02 | 1.0 | 6.42e-06 | 1.16e+08 | 0.0189 | 339 | – | – | – |
| Cc1cc(O)c2c3c1C(=O)C1c4c(c(O)cc5cc(O)cc(C)c45)[C@@]3(COC2=O)[C@H]1O [Macrosporusone A] | 16.8 ± 0.44 | – | 2.46e+00 | – | 1.62e-07 | 1.02e+08 | – | 254000 | – | – | – |
| CC(OCCCCOC(C)n1cnc2c(=O)[nH]cnc21)n1cnc2c(=O)[nH]cnc21 (stereo not shown) [NCI 79195] | – | – | – | – | – | – | – | – | – | 9.66 | – |
| COc1ccc(-c2cc(=O)c3c(O)cc(O[C@@H]4O[C@H](CO)[C@@H](O)[C@H](O)[C@H]4O[C@@H]4O[C@@H](C)[C@H](O)[C@@H](O)[C@H]4O)cc3o2)cc1O [Neodiosmin] | 5.5 ± 1.94 | – | 8.92e-02 | 26.8 | 0.00229 | 1.17e+08 | 384 | 5.95 | – | – | 380 |
| C[C@@H]1O[C@@H](O[C@H]2[C@H](Oc3cc(O)c4c(=O)cc(-c5ccc(O)cc5)oc4c3)O[C@H](CO)[C@@H](O)[C@@H]2O)[C@H](O)[C@H](O)[C@H]1O [Rhoifolin] | 20.3 ± 1.74 | – | 2.02e-01 | – | 0.209 | 1.49e+08 | 0.972 | 215000 | – | – | 0.97 |
| CCCc1nn(C)c2c(=O)[nH]c(-c3cc(S(=O)(=O)N4CCN(C)CC4)ccc3OCC)nc12 [sildenafil] | – | no detectable inhibitory activity | – | – | – | – | – | – | mild inhibition | – | – |
| CN1CC(=O)N2[C@H](c3ccc4c(c3)OCO4)c3[nH]c4ccccc4c3C[C@@H]2C1=O [tadalafil] | – | no detectable inhibitory activity | – | – | – | – | – | – | mild inhibition | – | – |

From paper PMC12131788, “Discovery of natural CdnP inhibitors through structure-based virtual screening and molecular dynamics simulations” (Microbiology Spectrum, 2025)
